The text below walks through data of US12473305B2, “Pyrazole boronic acid compound, pharmaceutical composition containing same, and uses thereof” (BEIJING SONGRUN PHARMACEUTICAL TECHNOLOGY CO., LTD., priority 2020, dated 2025).

Structures can show the parent of a compound that is named as a salt.

Test [1] has as its system non-small cell lung cancer cell line A549. In words: CellTiter-Glo tumor cell proliferation, A549. Format: cell-based, human. The following applies: Homo sapiens, A549, 72 h, read-out: Inhibition rate A549 (%). The procedure:
(§1) The effect of compounds on tumor cell proliferation was detected by CellTiter-Glo method. Human melanoma cell line A375, non-small cell lung cancer cell line A549, human lung adenocarcinoma cell line H1299, colorectal cancer cell line HCT116, liver cancer cell line HepG2 and gastric cancer cell line MGC80-3 were cultured in vitro. The cells were collected after growing to the logarithmic growth phase, centrifuged at 1000 rpm for 5 min, and suspended in an appropriate amount of medium after discarding the supernatant, and the cell concentration was adjusted to 2×10^4/mL. The cell suspension was inoculated onto the 384-well cell culture plate, with 50 μL per well. After being cultured in a cell incubator (37° C., 5% CO2) for 24 h, 5 μL of drug diluted by the cell culture medium was added into each well for the treatment group. Each drug was provided in triplicate. After 72 h incubation in the incubator, 20 μL of CellTiter-Glo was added into each well, and the relative luminescence unit (RLU) was measured with Multimode Microplate Reader Varioskan Flash (Thermo Scientific, USA) after placed at 37° C. for 20 min, and compared with the RLU of the control group. SigmaPlot 10.0 software was used to calculate the inhibition rate and IC50 value.
A general note: ATP-based viability assays read luminescence as a measure of living cells.

In test [2] the test system is Human melanoma cell line A375. In words: CellTiter-Glo tumor cell proliferation, A375. The class given is cell-based. The conditions noted are these: Homo sapiens, A-375, 72 h, read-out: Inhibition rate A375 (%). How it is done: as §1
In test [3] the test system is colorectal cancer cell line HCT116. In words: CellTiter-Glo tumor cell proliferation, HCT116. Format: cell-based, human. The following applies: 72 h; for inhibition at 1 µM / inhibition at 10 µM: read-out: Inhibition rate HCT116 (%); for IC50: CellTiter-Glo. How it is done: as §1

The term inhibition denotes the share of the control response that was lost under treatment. In the case of `CC(C)C[C@H](NC(=O)Cn1nc(-c2ccccc2OS(=O)(=O)c2cccc(C(F)(F)F)c2)cc1-c1ccc(Br)cc1)B(O)O` [Compound 13, (R)-(1-(2-(5-(4-bromophenyl)-3-(2-(((3-(trifluoromethyl)phenyl)sulfonyl)oxy)phenyl)-1H-pyrazol-1-yl)acetamido)-3-methylbutyl)boronic acid], the inhibition at 1 µM was 4.5% in test [1]; 8.1% in test [2]; 8.2% in test [3] (Homo sapiens, HCT-116). For the same compound, the inhibition at 10 µM in test [1] is 10.4%; in test [2], 41.3%; in test [3] (Homo sapiens, HCT-116), 3.3%.
Turning to `CC(C)C[C@H](NC(=O)Cn1nc(-c2ccccc2OS(=O)(=O)c2cccc(C(F)(F)F)c2)cc1-c1ccc(S(C)(=O)=O)cc1)B(O)O` [Compound 19, (R)-(1-(2-(5-(4-(methylsulfonyl)phenyl)-3-(2-(((3-(trifluoromethyl)phenyl)sulfonyl)oxy)phenyl)-1H-pyrazol-1-yl)acetamido)-3-methylbutyl)boronic acid], the inhibition at 1 µM in test [1] was determined as 8.7%; in test [2], 4.1%; in test [3] (Homo sapiens, HCT-116), 14.5%. Besides, the inhibition at 10 µM in test [1] worked out at 7.9%; in test [2], 45.2%; in test [3] (Homo sapiens, HCT-116), 33.9%.
On to `CC(C)C[C@H](NC(=O)Cn1nc(-c2ccccc2OS(=O)(=O)c2cccc(Br)c2)cc1-c1ccccc1)B(O)O` [Compound 6, (R)-(1-(2-(3-(2-(((3-bromophenyl)sulfonyl)oxy)phenyl)-5-phenyl-1H-pyrazol-1-yl)-acetamido)-3-methylbutyl)boronic acid], for which the inhibition at 1 µM came to 13.3% in test [1]; 7% in test [2]; 5.9% in test [3] (Homo sapiens, HCT-116). The inhibition at 10 µM in test [1] worked out at 64.7%; in test [2], 95%; in test [3] (Homo sapiens, HCT-116) it was 97%.
Take `CC(C)C[C@H](NC(=O)Cn1nc(-c2ccccc2OS(=O)(=O)c2cccc(C(F)(F)F)c2)cc1-c1ccc(Cl)cc1)B(O)O` [Compound 17, (R)-(1-(2-(5-(4-chlorophenyl)-3-(2-(((3-(trifluoromethyl)phenyl)sulfonyl)oxy)phenyl)-1H-pyrazol-1-yl)acetamido)-3-methylbutyl)boronic acid]: the inhibition at 1 µM in test [1] came out at 0.3%; in test [2], 8.3%; in test [3] (Homo sapiens, HCT-116) it was 13.6%. The inhibition at 10 µM in test [1] was found to be 1.9%; in test [2], 56.1%; in test [3] (Homo sapiens, HCT-116), 70.6%.
`CC(C)C[C@H](NC(=O)Cn1nc(-c2ccccc2OS(=O)(=O)c2ccccn2)cc1-c1ccccc1)B(O)O` [Compound 10, (R)-(1-(2-(3-(2-((pyridin-2-ylsulfonyl)oxy)phenyl)-5-phenyl-1H-pyrazol-1-yl)acetamido)-3-methylbutyl)boronic acid]: the inhibition at 1 µM came out at 0.1% in test [1]; 1.5% in test [2]; 6.6% in test [3] (Homo sapiens, HCT-116). Also, the inhibition at 10 µM in test [1] was 72.9%; in test [2], 98%; in test [3] (Homo sapiens, HCT-116) it was 98%.
With `CC(C)[C@H](NC(=O)Cn1nc(-c2ccccc2OS(=O)(=O)c2cccc(C(F)(F)F)c2)cc1-c1ccccc1Br)B(O)O` [Compound 15, (R)-(1-(2-(5-(2-bromophenyl)-3-(2-(((3-trifluoromethylphenyl)sulfonyl)oxy)phenyl)-1H-pyrazol-1-yl)acetamido)isobutyl)boronic acid], the inhibition at 1 µM in test [1] is 7.5%; in test [2] it was 3%; in test [3] (Homo sapiens, HCT-116) it was 5%. In addition, the inhibition at 10 µM in test [1] was found to be 1.5%; in test [2] it was 67.2%; in test [3] (Homo sapiens, HCT-116) it was 3.6%.
In general, IC50 refers to the midpoint of a concentration-inhibition curve. A lower IC50 goes with greater potency. Take “(R)-(3-methyl-1-(2-(3-(3-(2-(4-methylpiperazin-1-yl)ethoxy)phenyl)phenyl)-5-phenyl-1H-pyrazol-1-yl)acetamido)butyl)boronic acid hydrochloride [Compound 35]”: the half-maximal inhibitory concentration (IC50) in test [3] came out at 281 nM.
As to `CC(C)C[C@H](NC(=O)Cn1nc(-c2ccccc2OS(=O)(=O)c2ccccc2C(F)(F)F)cc1-c1ccccc1)B(O)O` [Compound 3, (R)-(3-methyl-1-(2-(5-phenyl-3-(2-(((2-(trifluoromethyl)phenyl)sulfonyl)oxy)phenyl)-1H-pyrazol-1-yl)acetamido)butyl)boronic acid], the inhibition at 1 µM worked out at 17.1% in test [1]; 5.7% in test [2]; 3% in test [3] (Homo sapiens, HCT-116). Moreover, the inhibition at 10 µM in test [1] is 60.6%; in test [2], 98.2%; in test [3] (Homo sapiens, HCT-116) it was 97.8%.
As to `CC(C)C[C@H](NC(=O)Cn1nc(-c2ccc(OS(=O)(=O)c3cccc(C(F)(F)F)c3)cc2)cc1-c1ccccc1)B(O)O` [Compound 12, (R)-(3-methyl-1-(2-(5-phenyl-3-(4-(((3-(trifluoromethyl)phenyl)sulfonyl)oxy)phenyl)-1H-pyrazol-1-yl)acetamido)butyl)boronic acid], the inhibition at 1 µM came to 45.5% in test [1]; 83% in test [2]; 45.8% in test [3] (Homo sapiens, HCT-116). In addition, the inhibition at 10 µM in test [1] came out at 85.3%; in test [2] it was 98.7%; in test [3] (Homo sapiens, HCT-116) it was 96.3%.
As to `CC(C)C[C@H](NC(=O)Cn1nc(-c2ccccc2OS(=O)(=O)c2cccc(Cl)c2)cc1-c1ccccc1)B(O)O` [Compound 5, (R)-(1-(2-(3-(2-(((3-chlorophenyl)sulfonyl)oxy)phenyl)-5-phenyl-1H-pyrazol-1-yl)-acetamido)-3-methylbutyl)boronic acid], the inhibition at 1 µM in test [1] came out at 10.2%; in test [2], 2.2%; in test [3] (Homo sapiens, HCT-116) it was 9%. Further, the inhibition at 10 µM in test [1] amounted to 67.2%; in test [2] it was 97.9%; in test [3] (Homo sapiens, HCT-116), 97.3%.
`CC(C)C[C@H](NC(=O)Cn1nc(-c2ccccc2OS(=O)(=O)c2cccc(C(F)(F)F)c2)cc1-c1ccc(C#N)cc1)B(O)O` [Compound 18, (R)-(1-(2-(5-(4-cyanophenyl)-3-(2-(((3-(trifluoromethyl)phenyl)sulfonyl)oxy)phenyl)-1H-pyrazol-1-yl)acetamido)-3-methylbutyl)boronic acid]: the inhibition at 1 µM is 7.1% in test [1]; 4.6% in test [2]; 5.5% in test [3] (Homo sapiens, HCT-116). The inhibition at 10 µM is 29% in test [1]; 81.1% in test [2]; 89.7% in test [3] (Homo sapiens, HCT-116).
`CC(C)C[C@H](NC(=O)Cn1nc(-c2ccccc2OS(=O)(=O)c2cccc(C(F)(F)F)c2)cc1-c1cccc(Br)c1)B(O)O` [Compound 14, (R)-(1-(2-(5-(3-bromophenyl)-3-(2-(((3-(trifluoromethyl)phenyl)sulfonyl)oxy)phenyl)-1H-pyrazol-1-yl)acetamido)-3-methylbutyl)boronic acid]: the inhibition at 1 µM in test [1] stood at 10.8%; in test [2] it was 16.5%; in test [3] (Homo sapiens, HCT-116) it was 9.9%. For the same compound, the inhibition at 10 µM in test [1] was 8%; in test [2], 50.4%; in test [3] (Homo sapiens, HCT-116), 9.2%.
As to `CC(C)[C@H](NC(=O)CN1NC(C)(c2cccc(OCCN3CCCCC3)c2)C=C1c1ccccc1)B(O)O` (stereo partly drawn) [Compound 34, (R)-(3-methyl-1-(2-(5-phenyl-3-(3-(2-(piperidin-1-yl)ethoxy)phenyl)-1H-pyrazol-1-yl)acetamido)isobutyl)boronic acid hydrochloride], the concentration for half-maximal inhibition (IC50) in test [3] (Homo sapiens, HCT-116) worked out at 891 nM.
On to `CC(C)C[C@H](NC(=O)Cn1nc(-c2ccccc2OS(=O)(=O)c2cccc(C(F)(F)F)c2)cc1-c1ccc(OCc2ccccc2)cc1)B(O)O` [Compound 23, (R)-(1-(2-(5-(4-(benzyloxy)phenyl)-3-(2-(((3-(trifluoromethyl)phenyl)sulfonyl)oxy)phenyl)-1H-pyrazol-1-yl)acetamido)-3-methylbutyl)boronic acid], for which the inhibition at 1 µM was 7.4% in test [1]; 5.7% in test [2]; 2.6% in test [3] (Homo sapiens, HCT-116). In addition, the inhibition at 10 µM in test [1] is 63.4%; in test [2], 77%; in test [3] (Homo sapiens, HCT-116), 55.6%.
Compound `CC(C)C[C@H](NC(=O)Cn1nc(-c2cccc(OCCN3CC(C)OC(C)C3)c2)cc1-c1ccccc1)B(O)O` (stereo partly drawn) [Compound 36, ((1R)-1-(2-(3-(3-(2-(2,6-dimethylmorpholino)ethoxy)phenyl)-5-phenyl-1H-pyrazol-1-yl)acetamido)-3-methylbutyl)boronic acid hydrochloride] had an IC50 in test [3] (Homo sapiens, HCT-116) of 57 nM.
Turning to `CC(C)[C@H](NC(=O)CN1NC(C)(c2cccc(OCCN3CCCC3)c2)C=C1c1ccccc1)B(O)O` (stereo partly drawn) [Compound 33, (R)-(3-methyl-1-(2-(5-phenyl-3-(3-(2-(pyrrolidin-1-yl)ethoxy)phenyl)-1H-pyrazol-1-yl)acetamido)isobutyl)boronic acid hydrochloride], half-maximal inhibition in test [3] (Homo sapiens, HCT-116) (IC50) required 925 nM.
For the compound “(R)-(1-(2-(3-(N,N-diethylethoxy)phenyl)-5-phenyl-1H-pyrazol-1-yl)acetamido)isobutyl)boronic acid hydrochloride [Compound 32]”, 427 nM corresponded to half-maximal inhibition in test [3] (IC50).
